Assay results: ChEMBL document CHEMBL3885881, “DrugMatrix”

Species: Rattus norvegicus
Experiment: DrugMatrix - Regimen: Daily Repeat
Format: toxicity, organism-based, Sprague-Dawley
Set-up: regimen Daily Repeat, gender Male, age 6-8 weeks
Conditions: in vivo, po, route oral GAVAGE, […]; for ABSOLUTE BASOPHIL / ABSOLUTE EOSINOPHIL / ABSOLUTE LYMPHOCYTE / ABSOLUTE MONOCYTE / ABSOLUTE SEGMENTED NEUTROPHIL / BASOPHIL / EOSINOPHIL / ERYTHROCYTE COUNT / HEMATOCRIT / HEMOGLOBIN / LEUKOCYTE COUNT / LYMPHOCYTE / MEAN CORPUSCULAR HEMOGLOBIN / MEAN CORPUSCULAR HEMOGLOBIN CONCENTRATION / MEAN CORPUSCULAR VOLUME / MONOCYTE / NEUTROPHIL / NUCLEATED RED BLOOD CELLS / PLATELET COUNT: tissue Blood; for ALANINE AMINOTRANSFERASE / ALBUMIN / ALKALINE PHOSPHATASE / ASPARTATE AMINOTRANSFERASE / BLOOD UREA NITROGEN / CARBON DIOXIDE / CHLORIDE / CHOLESTEROL / CREATINE PHOSPHOKINASE / CREATININE / GLUCOSE / LACTATE DEHYDROGENASE / LIPASE / PHOSPHORUS / POTASSIUM / SODIUM / TOTAL BILIRUBIN / TOTAL PROTEIN / URIC ACID: tissue Plasma
[1] = 0 mg/kg, 72 h, dose level Control, time 3 day
[2] = 0 mg/kg, 120 h, dose level Control, time 5 day
[3] = 10 mg/kg, 72 h, dose level Low, time 3 day

Question: Which results are given for `COCCOC(=O)C1=C(C)NC(C)=C(C(=O)OC(C)C)C1c1cccc([N+](=O)[O-])c1` (centres undefined) [NIMODIPINE]?
Answer: ABSOLUTE BASOPHIL [1]: 0 CELLS/uL; ABSOLUTE EOSINOPHIL [1]: 0 CELLS/uL; ABSOLUTE LYMPHOCYTE [1]: 9244.83 CELLS/uL; ABSOLUTE MONOCYTE [1]: 102 CELLS/uL; ABSOLUTE SEGMENTED NEUTROPHIL [1]: 869.83 CELLS/uL; BASOPHIL [1]: 0%; EOSINOPHIL [1]: 0%; ERYTHROCYTE COUNT [1]: 5.43 x10E6/uL; HEMATOCRIT [1]: 34.03%; HEMOGLOBIN [1]: 13.27 G/DL; LEUKOCYTE COUNT [1]: 10.22 x10E3/uL; LYMPHOCYTE [1]: 90.33%; MEAN CORPUSCULAR HEMOGLOBIN [1]: 24.48 pg; MEAN CORPUSCULAR HEMOGLOBIN CONCENTRATION [1]: 39.03 G/DL; MEAN CORPUSCULAR VOLUME [1]: 62.75 fL; MONOCYTE [1]: 1%; NEUTROPHIL [1]: 8.67%; NUCLEATED RED BLOOD CELLS [1]: 0.17 /100WBC; PLATELET COUNT [1]: 989 x10E3/uL; ALANINE AMINOTRANSFERASE [1]: 77 u/L; ALBUMIN [1]: 3.97 G/DL; ALKALINE PHOSPHATASE [1]: 464.83 u/L; ASPARTATE AMINOTRANSFERASE [1]: 89.83 u/L; BLOOD UREA NITROGEN [1]: 12.17 mg/dL; CARBON DIOXIDE [1]: 34.17 mmol/L; CHLORIDE [1]: 98.33 MEQ/L; CHOLESTEROL [1]: 75.17 mg/dL; CREATINE PHOSPHOKINASE [1]: 367.67 u/L; CREATININE [1]: 0.16 mg/dL; GLUCOSE [1]: 142.67 mg/dL; LACTATE DEHYDROGENASE [1]: 139.33 u/L; LIPASE [1]: 9.5 u/L; PHOSPHORUS [1]: 10.85 mg/dL; POTASSIUM [1]: 6.38 MEQ/L; SODIUM [1]: 143.2 MEQ/L; TOTAL BILIRUBIN [1]: 0.2 mg/dL; TOTAL PROTEIN [1]: 5.77 G/DL; URIC ACID [1]: 0.7 mg/dL; ABSOLUTE BASOPHIL [2]: 0 CELLS/uL; ABSOLUTE EOSINOPHIL [2]: 0 CELLS/uL; ABSOLUTE LYMPHOCYTE [2]: 8295.33 CELLS/uL; ABSOLUTE MONOCYTE [2]: 84.67 CELLS/uL; ABSOLUTE SEGMENTED NEUTROPHIL [2]: 970 CELLS/uL; BASOPHIL [2]: 0%; EOSINOPHIL [2]: 0%; ERYTHROCYTE COUNT [2]: 5.74 x10E6/uL; HEMATOCRIT [2]: 36.22%; HEMOGLOBIN [2]: 13.85 G/DL; LEUKOCYTE COUNT [2]: 9.35 x10E3/uL; LYMPHOCYTE [2]: 88.67%; MEAN CORPUSCULAR HEMOGLOBIN [2]: 24.13 pg; MEAN CORPUSCULAR HEMOGLOBIN CONCENTRATION [2]: 38.25 G/DL; MEAN CORPUSCULAR VOLUME [2]: 63.08 fL; MONOCYTE [2]: 1%; NEUTROPHIL [2]: 10.33%; NUCLEATED RED BLOOD CELLS [2]: 0.17 /100WBC; PLATELET COUNT [2]: 883.83 x10E3/uL; ALANINE AMINOTRANSFERASE [2]: 64.5 u/L; ALBUMIN [2]: 4.12 G/DL; ALKALINE PHOSPHATASE [2]: 425.67 u/L; ASPARTATE AMINOTRANSFERASE [2]: 88.5 u/L; BLOOD UREA NITROGEN [2]: 14.17 mg/dL; CARBON DIOXIDE [2]: 30.5 mmol/L; CHLORIDE [2]: 100.33 MEQ/L; CHOLESTEROL [2]: 55.33 mg/dL; CREATINE PHOSPHOKINASE [2]: 287.17 u/L; CREATININE [2]: 0.2 mg/dL; GLUCOSE [2]: 162.83 mg/dL; LACTATE DEHYDROGENASE [2]: 111.33 u/L; LIPASE [2]: 10.5 u/L; PHOSPHORUS [2]: 10.32 mg/dL; POTASSIUM [2]: 5.13 MEQ/L; SODIUM [2]: 143.93 MEQ/L; TOTAL BILIRUBIN [2]: 0.17 mg/dL; TOTAL PROTEIN [2]: 5.9 G/DL; URIC ACID [2]: 0.77 mg/dL; ABSOLUTE BASOPHIL [3]: 0 CELLS/uL; ABSOLUTE EOSINOPHIL [3]: 0 CELLS/uL; ABSOLUTE LYMPHOCYTE [3]: 10257 CELLS/uL; ABSOLUTE MONOCYTE [3]: 34.33 CELLS/uL; ABSOLUTE SEGMENTED NEUTROPHIL [3]: 975.33 CELLS/uL; BASOPHIL [3]: 0%; EOSINOPHIL [3]: 0%; ERYTHROCYTE COUNT [3]: 5.25 x10E6/uL; HEMATOCRIT [3]: 33.27%; HEMOGLOBIN [3]: 13.03 G/DL; LEUKOCYTE COUNT [3]: 11.27 x10E3/uL; LYMPHOCYTE [3]: 92%; MEAN CORPUSCULAR HEMOGLOBIN [3]: 24.83 pg; MEAN CORPUSCULAR HEMOGLOBIN CONCENTRATION [3]: 39.2 G/DL; MEAN CORPUSCULAR VOLUME [3]: 63.37 fL; MONOCYTE [3]: 0.33%; NEUTROPHIL [3]: 7.67%; NUCLEATED RED BLOOD CELLS [3]: 0 /100WBC; PLATELET COUNT [3]: 1138 x10E3/uL; ALANINE AMINOTRANSFERASE [3]: 72.67 u/L; ALBUMIN [3]: 3.87 G/DL; ALKALINE PHOSPHATASE [3]: 445.67 u/L; ASPARTATE AMINOTRANSFERASE [3]: 88 u/L; BLOOD UREA NITROGEN [3]: 12 mg/dL; CARBON DIOXIDE [3]: 33 mmol/L; CHLORIDE [3]: 99 MEQ/L; CHOLESTEROL [3]: 69.67 mg/dL; CREATINE PHOSPHOKINASE [3]: 468 u/L; CREATININE [3]: 0.2 mg/dL; GLUCOSE [3]: 153.33 mg/dL; LACTATE DEHYDROGENASE [3]: 135.67 u/L; LIPASE [3]: 10.67 u/L; PHOSPHORUS [3]: 11.03 mg/dL; POTASSIUM [3]: 6.2 MEQ/L; SODIUM [3]: 144.23 MEQ/L; TOTAL BILIRUBIN [3]: 0.17 mg/dL; TOTAL PROTEIN [3]: 5.57 G/DL; URIC ACID [3]: 0.7 mg/dL
